Test results as given in patent US9180111B2, “Reduction in complement activation and inflammation during tissue injury by carotenoids, carotenoid analogs, or derivatives thereof” (Cardax Pharma, Inc., priority 2005, dated 2015).

Legend:
[1] = Plasma and tissue concentrations of non-esterified, free astaxanthin at the end of reperfusion; type: in vivo, rabbit; conditions: rabbits, DDA 50 mg/kg i.v. for 4 days, end of 3 h reperfusion
From the text: To determine the plasma and tissue concentrations of non-esterified, free astaxanthin in blood and organs, samples were taken at the end of reperfusion in selected rabbits (n=5) treated with DDA, and determined by methods previously described (Osterlie et al., 2000). Non-esterified, free astaxanthin, in vivo, is generated after cleavage of the water-dispersible disuccinate diester to monosuccinate, and subsequently to non-esterified, free astaxanthin by the intrinsic esterase activity of serum albumin (Curry et al., 1999), or by non-specific esterase activity in plasma and solid organs (Jensen et al., 1999). Non-esterified, free astaxanthin then accumulates in myocardium and other tissues after plasma clearance in a dose-dependent manner after both oral (Showalter et al., 2004) and intravenous administration (Gross and Lockwood 2004a,b).

[2] = system: cardiac-specific troponin I (cTnI); assay: Measurement of cardiac-specific troponin I by ELISA; type: in vivo, rabbit; conditions: rabbits, 50 mg/kg i.v. 4 days; not statistically significant
Protocol: Whole blood was drawn at baseline (pre-ischemia) and at the end of reperfusion for the determination of cardiac-specific troponin I (cTnI). Serum levels of the proteins were measured using a commercially available ELISA kit. Collected plasma samples were prepared from whole blood and were snap frozen in liquid nitrogen. The samples were stored at −80° C. until the day of the assay when they were thawed over ice and diluted appropriately with the sample diluent supplied with each assay kit. Determination of the target protein using a protein standard curve was performed according to standard procedure in the art.

CRP = CRP deposition in heart tissue by indirect immunofluorescence; type: in vivo, rabbit; conditions: rabbits, 50 mg/kg i.v. 4 days, 30 min ischemia, 3 h reperfusion; p<0.05
Protocol: (§1) The immunofluorescent method for detection of CRP was performed essentially as described previously (Lauver et al., 2005). Briefly, tissue samples used for infarct size determination were fixed in 10% buffered formalin immediately after the completion of the experimental protocol. The tissue samples were embedded in paraffin blocks and cut into sections of 2 μm in thickness, which were then mounted on glass slides. Two consecutive sections (mirror images) from a single heart slice were mounted on each slide. The slides were deparaffinized and subjected to antigen unmasking using a commercially available kit for this purpose (Vector Laboratories, Burlingame, Calif.). After blocking for 30 minutes, primary antibodies were incubated at room temperature in a humidity chamber for 45 minutes. One section per slide was incubated with a chicken anti-rabbit CRP antibody (5 μg/ml final concentration, Strategic BioSolutions, Newark, Del.) and the other section was incubated with a chicken anti-rabbit MAC antibody (1:2500 final dilution, developed in conjunction with Lampire Biological Laboratories, Pipersville, Pa.). […] Images were analyzed using IP Lab (Scanalytics, Inc., Fairfax, Va.) software to determine mean fluorescence intensity per heart section. […]

MAC (C5b-9) = assay: MAC deposition in heart tissue by indirect immunofluorescence; type: in vivo, rabbit; conditions: rabbits, 50 mg/kg i.v. 4 days, 30 min ischemia, 3 h reperfusion; p<0.05
Protocol: as §1

rabbit complement system = assay: Complement-mediated red blood cell (RBC) hemolysis assay, ex vivo, rabbit plasma on human erythrocytes; type: in vivo; conditions: plasma after 3 h reperfusion, 50 mg/kg, 4 days; p<0.01
Protocol: A red blood cell (RBC) lysis assay was used to determine whether the pretreatment with DDA compared to placebo-treated animals was able to inhibit the rabbit complement system. The ex vivo analysis of complement activity is based on the C5b-9-dependent lysis of human red blood cells upon exposure to rabbit plasma. Complement-mediated RBC hemolysis was assessed by a turbidometric method described previously (Pascual et al., 1990). The hemolysis assay is an accepted method of assessing the complement titer of plasma or serum samples (Whaley, 1985). Rabbit plasma was obtained from whole blood samples drawn from rabbits that were pretreated with DDA (50 mg/kg, 4 days, n=5) or sterile 0.9% sodium chloride solution (4 days, n=5). After obtaining informed consent, human whole blood for the isolation of red blood cells was obtained by venipuncture of the forearm vein of a healthy donor who had not been exposed to any medication for the past seven days. The cells were washed three times in 10 ml phosphate buffered saline (PBS, pH 7.4) and diluted in PBS to achieve a final RBC concentration of 1×10^8 cells/ml. The assay was initiated by the addition of 15 μl of diluted human RBCs to 185 μl of rabbit plasma, and the light transmittance was monitored for 5 min. The final assay volume was 200 μl. […]

Sprague-Dawley rats = conditions: 50 mg/kg i.v., four days; cited from earlier work
[3] = oral administration to black mice (Showalter et al. 2004); cited from earlier work

CC1=C(/C=C/C(C)=C/C=C/C(C)=C/C=C/C=C(C)/C=C/C=C(C)/C=C/C2=C(C)C(=O)C(OC(=O)CCC(=O)O)CC2(C)C)C(C)(C)CC(OC(=O)CCC(=O)O)C1=O (centres unmarked) [DDA, disodium disuccinate astaxanthin]
mean myocardial tissue concentration of non-esterified astaxanthin [1]: > 10 µM | mean plasma concentration of non-esterified, free astaxanthin [1]: 222 ± 51 nM | mean serum cTnI concentration at the end of reperfusion versus vehicle controls [2]: lower mean cTnI concentration | CRP deposition in infarct region (fluorescence intensity) versus saline (CRP): significantly reduced fluorescence | MAC deposition in infarct region (fluorescence intensity) versus saline (MAC (C5b-9)): significantly reduced fluorescence | rabbit plasma-induced human erythrocyte hemolysis versus placebo (rabbit complement system): significantly attenuated | mean myocardial salvage (Sprague-Dawley rats): 41% | plasma clearance of free astaxanthin and tissue/serum ratios [3]: Rapid plasma clearance of free astaxanthin, and excellent myocardium- and hepatic/serum ratios
